Here are results for five compounds from article PMC5224880, “Discovery and Molecular Basis of a Diverse Set of Polycomb Repressive Complex 2 Inhibitors Recognition by EED” (PLoS ONE, 2017).

The target in experiment [1] is recombinant EED (Homo sapiens, UniProt O75530). Put plainly: ITC binding analysis. Conditions: 25°C. The procedure:
ITC experiments were performed on an Auto ITC200 (Microcal) at 25°C. The ITC sample cell was filled with 10 μM PRC2 in titration buffer containing 25 mM HEPES pH8.0, 150 mM NaCl, and 1% DMSO. 40 μL of 100 μM compounds in the same titration buffer was loaded in the ITC syringe. 19 injections, each of 2 μL, was injected into the ITC cell at 150 s intervals. Binding constant (K) and binding enthalpy (ΔH) determinations were obtained from the fit to the experimental data using a one-site model.
Both isothermal calorimetry (ITC) and surface plasmon resonance (SPR) assay were established for this purpose.

Experiment [2] deals with T1, NSD3 (Homo sapiens, UniProt Q9BZ95).
T1 sequence (Q9BZ95 1-1437): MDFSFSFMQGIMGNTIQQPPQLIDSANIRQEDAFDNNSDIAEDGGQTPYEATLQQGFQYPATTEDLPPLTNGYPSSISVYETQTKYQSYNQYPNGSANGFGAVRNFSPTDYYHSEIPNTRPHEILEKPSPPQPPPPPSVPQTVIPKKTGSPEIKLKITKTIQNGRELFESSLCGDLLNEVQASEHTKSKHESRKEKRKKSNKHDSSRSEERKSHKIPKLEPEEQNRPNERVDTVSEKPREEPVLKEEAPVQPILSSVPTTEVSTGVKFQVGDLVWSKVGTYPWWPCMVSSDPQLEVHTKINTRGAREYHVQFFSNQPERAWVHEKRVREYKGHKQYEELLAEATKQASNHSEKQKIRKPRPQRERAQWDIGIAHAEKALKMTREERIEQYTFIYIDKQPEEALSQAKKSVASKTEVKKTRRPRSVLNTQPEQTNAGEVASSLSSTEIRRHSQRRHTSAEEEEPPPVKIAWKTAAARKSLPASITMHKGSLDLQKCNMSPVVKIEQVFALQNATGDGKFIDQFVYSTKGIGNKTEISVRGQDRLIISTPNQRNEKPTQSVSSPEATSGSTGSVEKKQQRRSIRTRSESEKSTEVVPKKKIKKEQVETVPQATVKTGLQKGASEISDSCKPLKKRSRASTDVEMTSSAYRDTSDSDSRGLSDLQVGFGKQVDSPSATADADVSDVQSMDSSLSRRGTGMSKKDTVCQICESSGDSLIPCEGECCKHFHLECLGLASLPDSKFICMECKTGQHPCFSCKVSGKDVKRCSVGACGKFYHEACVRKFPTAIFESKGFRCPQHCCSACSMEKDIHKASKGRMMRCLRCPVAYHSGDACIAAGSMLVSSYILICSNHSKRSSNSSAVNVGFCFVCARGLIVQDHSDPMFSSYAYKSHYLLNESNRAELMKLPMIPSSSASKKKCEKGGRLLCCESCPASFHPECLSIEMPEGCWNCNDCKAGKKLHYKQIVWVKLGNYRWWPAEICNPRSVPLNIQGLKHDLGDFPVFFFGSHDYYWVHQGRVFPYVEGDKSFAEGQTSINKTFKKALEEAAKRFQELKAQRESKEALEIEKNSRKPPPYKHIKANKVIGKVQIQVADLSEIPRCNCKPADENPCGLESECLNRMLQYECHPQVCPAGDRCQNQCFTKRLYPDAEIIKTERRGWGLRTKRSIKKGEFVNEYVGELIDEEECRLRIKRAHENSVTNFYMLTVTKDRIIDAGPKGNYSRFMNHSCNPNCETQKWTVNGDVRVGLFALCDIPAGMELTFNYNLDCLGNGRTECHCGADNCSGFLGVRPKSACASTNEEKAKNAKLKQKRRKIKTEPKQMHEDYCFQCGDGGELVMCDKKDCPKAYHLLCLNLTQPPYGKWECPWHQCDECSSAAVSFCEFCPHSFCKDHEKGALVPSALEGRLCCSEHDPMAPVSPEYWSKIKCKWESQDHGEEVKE
Put plainly: HMT panel selectivity: NSD3. The experiment is classed as biochemical. The procedure:
(§1) Note: for EZH2, EZH2/EED/SUZ12/RBAP48/AEBP2 was used in the assay; for EZH1, EZH1/EED/SUZ12/RBAP48/AEBP2 was used in the assay; for MLL, MLL/WDR5/RBBP5/ASH2L/ was use in the assay. a, H3K27me0 peptide was used as substrate for both EZH2 and EZH1 activity; b, H3K27me1 peptide was used as substrate for both EZH2 and EZH1 activity. All HMT reactions were performed as described previously. ref: Proc Natl Acad Sci U S A. 2012 Dec 26;109(52):21360-5.

The target in experiment [3] is Dot1L (Homo sapiens, UniProt Q8TEK3). The experiment can be described thus: HMT panel selectivity: Dot1L. The experiment is classed as biochemical. The procedure:
as §1

For experiment [4], the target named is T2, Set7/9 (Homo sapiens, UniProt Q8WTS6).
T2 sequence (Q8WTS6 1-366): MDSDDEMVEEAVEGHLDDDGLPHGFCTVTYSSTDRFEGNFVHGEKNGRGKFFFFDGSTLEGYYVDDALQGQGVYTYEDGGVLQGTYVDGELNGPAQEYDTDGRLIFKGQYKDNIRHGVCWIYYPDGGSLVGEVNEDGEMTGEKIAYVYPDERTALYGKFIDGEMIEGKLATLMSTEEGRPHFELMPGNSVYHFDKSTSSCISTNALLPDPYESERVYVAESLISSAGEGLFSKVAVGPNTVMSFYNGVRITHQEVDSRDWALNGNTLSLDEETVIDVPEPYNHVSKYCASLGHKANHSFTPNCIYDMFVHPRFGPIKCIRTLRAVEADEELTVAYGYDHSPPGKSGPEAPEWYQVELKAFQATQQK
The experiment can be described thus: HMT panel selectivity: Set7/9. The experiment is classed as biochemical. The procedure:
as §1

Experiment [5] has as its target DNMT1 (Homo sapiens, UniProt P26358). Put plainly: HMT panel selectivity: DNMT1. The experiment is classed as biochemical. The procedure:
as §1

Experiment [6] has as its target EZH2 (EZH2/EED/SUZ12/RBAP48/AEBP2) (Homo sapiens, UniProt O75530+Q15910). The experiment can be described thus: HMT panel selectivity: EZH2. The experiment is classed as biochemical. The text has this: This assay employs liquid chromatography mass spectrometry technology using peptide or nucleosome as substrate and then detects the formation of the co-product SAH [11, 25].
Note: for EZH2, EZH2/EED/SUZ12/RBAP48/AEBP2 was used in the assay; for EZH1, EZH1/EED/SUZ12/RBAP48/AEBP2 was used in the assay; for MLL, MLL/WDR5/RBBP5/ASH2L/ was use in the assay. a, H3K27me0 peptide was used as substrate for both EZH2 and EZH1 activity; b, H3K27me1 peptide was used as substrate for both EZH2 and EZH1 activity.

Experiment [7] addresses T3, His-EED (residues 1–441) (Homo sapiens, UniProt O75530).
T3 construct: 30 nM His-EED (residues 1–441) protein
The experiment can be described thus: biochemical. The conditions noted are these: 30 nM His-EED, 15 nM biotin-H3K27me3 (19–33) peptide; read-out: IC50, EED-H3K27me3 AlphaScreen competition binding assay.
Description: The data were then fit to a dose response equation using the program Helios (Novartis) to determine the IC50 values.
Each compound was counterscreened to determine if it interfered with the AlphaScreen beads. Compounds were diluted as described in the preceding section, and the assay was performed by adding 12 μL of 10 nM Biotin-miniPEG-His6 peptide in the above buffer and incubated for 20 min at room temperature prior to addition of the acceptor and donor beads. The plates were then incubated for 1 h at room temperature in the dark before being read on the EnVision system (Perkin Elmer).
In addition to the enzymatic assay, we also developed a binding assay to measure the interaction between His-tagged recombinant EED protein and a biotinylated H3K27me3 peptide using the Amplified Luminescence Proximity Homogenous Assay Screen (AlphaScreen) [33, 34]. Binding of Biotin-H3K27me3 peptide to His-EED protein brings the streptavidin-coated donor beads and anti-His antibody coated acceptor beads into close proximity and thus a luminescent signal is produced. Disruption of EED-H3K27me3 interaction by H3K27me3 pocket binders will result in the signal reduction.

Chain of EZH2 (EZH2/EED/SUZ12/RBAP48/AEBP2) (Q15910 whole entry): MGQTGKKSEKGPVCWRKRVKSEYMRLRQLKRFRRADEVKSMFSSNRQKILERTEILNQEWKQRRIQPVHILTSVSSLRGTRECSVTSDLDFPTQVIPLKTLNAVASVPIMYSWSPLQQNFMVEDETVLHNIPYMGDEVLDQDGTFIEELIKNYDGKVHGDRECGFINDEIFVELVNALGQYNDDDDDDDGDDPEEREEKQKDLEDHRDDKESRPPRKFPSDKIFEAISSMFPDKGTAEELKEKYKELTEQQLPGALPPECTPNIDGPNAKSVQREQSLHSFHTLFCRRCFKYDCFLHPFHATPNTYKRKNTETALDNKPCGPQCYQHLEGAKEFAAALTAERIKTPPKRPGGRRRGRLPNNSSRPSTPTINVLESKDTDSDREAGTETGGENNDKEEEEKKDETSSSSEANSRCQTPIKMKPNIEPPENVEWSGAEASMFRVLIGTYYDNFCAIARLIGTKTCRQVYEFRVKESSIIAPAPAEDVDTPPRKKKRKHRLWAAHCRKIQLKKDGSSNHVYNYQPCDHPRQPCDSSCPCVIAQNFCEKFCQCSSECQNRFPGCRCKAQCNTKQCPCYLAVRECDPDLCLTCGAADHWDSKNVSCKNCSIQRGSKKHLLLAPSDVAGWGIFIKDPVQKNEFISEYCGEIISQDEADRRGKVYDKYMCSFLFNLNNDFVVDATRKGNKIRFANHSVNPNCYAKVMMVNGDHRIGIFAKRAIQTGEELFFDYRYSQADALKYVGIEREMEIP
Chain of EZH2 (EZH2/EED/SUZ12/RBAP48/AEBP2) (O75530 whole entry): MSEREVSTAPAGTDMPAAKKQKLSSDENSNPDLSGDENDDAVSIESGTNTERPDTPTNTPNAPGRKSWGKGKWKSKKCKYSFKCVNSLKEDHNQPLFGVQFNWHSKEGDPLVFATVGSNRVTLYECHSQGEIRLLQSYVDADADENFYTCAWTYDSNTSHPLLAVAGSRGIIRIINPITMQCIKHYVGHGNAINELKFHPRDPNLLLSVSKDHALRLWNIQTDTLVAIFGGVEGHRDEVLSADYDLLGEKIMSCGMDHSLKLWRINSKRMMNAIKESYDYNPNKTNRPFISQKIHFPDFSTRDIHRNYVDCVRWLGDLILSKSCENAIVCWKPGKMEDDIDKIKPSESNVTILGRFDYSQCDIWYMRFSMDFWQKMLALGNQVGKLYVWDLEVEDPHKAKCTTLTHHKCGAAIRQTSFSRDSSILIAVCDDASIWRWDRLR
Chain of EZH2 (EZH2/EED/SUZ12/RBAP48/AEBP2) (Q15022 whole entry partner): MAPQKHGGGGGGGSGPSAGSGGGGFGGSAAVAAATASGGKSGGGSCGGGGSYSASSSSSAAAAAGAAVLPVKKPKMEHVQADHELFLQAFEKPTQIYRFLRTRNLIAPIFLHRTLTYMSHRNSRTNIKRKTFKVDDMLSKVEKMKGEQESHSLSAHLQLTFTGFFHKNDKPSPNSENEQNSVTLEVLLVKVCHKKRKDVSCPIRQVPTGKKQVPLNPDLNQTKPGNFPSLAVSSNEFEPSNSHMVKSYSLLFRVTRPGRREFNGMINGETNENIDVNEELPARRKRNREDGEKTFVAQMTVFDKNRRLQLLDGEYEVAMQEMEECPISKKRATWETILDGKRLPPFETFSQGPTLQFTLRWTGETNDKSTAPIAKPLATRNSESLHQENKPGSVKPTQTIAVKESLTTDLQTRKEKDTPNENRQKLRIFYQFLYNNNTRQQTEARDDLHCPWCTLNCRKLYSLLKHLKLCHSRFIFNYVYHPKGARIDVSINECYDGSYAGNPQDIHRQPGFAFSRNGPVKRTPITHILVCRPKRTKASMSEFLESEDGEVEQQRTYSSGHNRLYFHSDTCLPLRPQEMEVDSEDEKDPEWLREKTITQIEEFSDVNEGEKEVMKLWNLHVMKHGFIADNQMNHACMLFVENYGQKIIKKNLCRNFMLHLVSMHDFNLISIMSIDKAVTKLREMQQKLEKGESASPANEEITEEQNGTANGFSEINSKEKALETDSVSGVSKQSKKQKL
Chain of EZH2 (EZH2/EED/SUZ12/RBAP48/AEBP2) (Q09028 whole entry partner): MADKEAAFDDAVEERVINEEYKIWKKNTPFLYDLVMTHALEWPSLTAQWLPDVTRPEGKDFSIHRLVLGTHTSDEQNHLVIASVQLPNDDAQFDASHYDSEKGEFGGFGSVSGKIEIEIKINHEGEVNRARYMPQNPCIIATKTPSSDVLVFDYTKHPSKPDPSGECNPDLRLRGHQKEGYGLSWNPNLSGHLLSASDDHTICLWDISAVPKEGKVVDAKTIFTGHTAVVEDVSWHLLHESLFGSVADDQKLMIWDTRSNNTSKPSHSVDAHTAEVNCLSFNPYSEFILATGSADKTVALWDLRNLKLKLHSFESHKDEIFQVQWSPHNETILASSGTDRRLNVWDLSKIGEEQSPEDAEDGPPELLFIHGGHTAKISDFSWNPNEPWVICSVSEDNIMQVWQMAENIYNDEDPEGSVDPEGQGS
Chain of EZH2 (EZH2/EED/SUZ12/RBAP48/AEBP2) (Q6ZN18 whole entry partner): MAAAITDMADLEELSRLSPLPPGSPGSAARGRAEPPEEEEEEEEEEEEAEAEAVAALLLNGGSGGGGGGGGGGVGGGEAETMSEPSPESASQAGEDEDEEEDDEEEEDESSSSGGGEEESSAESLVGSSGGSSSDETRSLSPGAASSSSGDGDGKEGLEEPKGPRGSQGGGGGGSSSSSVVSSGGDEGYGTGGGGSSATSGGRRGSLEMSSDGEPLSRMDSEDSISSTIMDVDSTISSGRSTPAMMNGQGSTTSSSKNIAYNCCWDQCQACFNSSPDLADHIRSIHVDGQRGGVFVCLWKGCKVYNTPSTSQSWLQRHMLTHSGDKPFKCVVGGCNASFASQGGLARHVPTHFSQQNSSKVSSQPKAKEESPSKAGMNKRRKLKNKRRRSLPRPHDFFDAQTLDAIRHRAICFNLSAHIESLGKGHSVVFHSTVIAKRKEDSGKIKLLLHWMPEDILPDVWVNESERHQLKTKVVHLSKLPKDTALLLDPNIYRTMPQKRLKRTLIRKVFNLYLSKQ
Chain of DNMT1 (P26358 whole entry, species assumed): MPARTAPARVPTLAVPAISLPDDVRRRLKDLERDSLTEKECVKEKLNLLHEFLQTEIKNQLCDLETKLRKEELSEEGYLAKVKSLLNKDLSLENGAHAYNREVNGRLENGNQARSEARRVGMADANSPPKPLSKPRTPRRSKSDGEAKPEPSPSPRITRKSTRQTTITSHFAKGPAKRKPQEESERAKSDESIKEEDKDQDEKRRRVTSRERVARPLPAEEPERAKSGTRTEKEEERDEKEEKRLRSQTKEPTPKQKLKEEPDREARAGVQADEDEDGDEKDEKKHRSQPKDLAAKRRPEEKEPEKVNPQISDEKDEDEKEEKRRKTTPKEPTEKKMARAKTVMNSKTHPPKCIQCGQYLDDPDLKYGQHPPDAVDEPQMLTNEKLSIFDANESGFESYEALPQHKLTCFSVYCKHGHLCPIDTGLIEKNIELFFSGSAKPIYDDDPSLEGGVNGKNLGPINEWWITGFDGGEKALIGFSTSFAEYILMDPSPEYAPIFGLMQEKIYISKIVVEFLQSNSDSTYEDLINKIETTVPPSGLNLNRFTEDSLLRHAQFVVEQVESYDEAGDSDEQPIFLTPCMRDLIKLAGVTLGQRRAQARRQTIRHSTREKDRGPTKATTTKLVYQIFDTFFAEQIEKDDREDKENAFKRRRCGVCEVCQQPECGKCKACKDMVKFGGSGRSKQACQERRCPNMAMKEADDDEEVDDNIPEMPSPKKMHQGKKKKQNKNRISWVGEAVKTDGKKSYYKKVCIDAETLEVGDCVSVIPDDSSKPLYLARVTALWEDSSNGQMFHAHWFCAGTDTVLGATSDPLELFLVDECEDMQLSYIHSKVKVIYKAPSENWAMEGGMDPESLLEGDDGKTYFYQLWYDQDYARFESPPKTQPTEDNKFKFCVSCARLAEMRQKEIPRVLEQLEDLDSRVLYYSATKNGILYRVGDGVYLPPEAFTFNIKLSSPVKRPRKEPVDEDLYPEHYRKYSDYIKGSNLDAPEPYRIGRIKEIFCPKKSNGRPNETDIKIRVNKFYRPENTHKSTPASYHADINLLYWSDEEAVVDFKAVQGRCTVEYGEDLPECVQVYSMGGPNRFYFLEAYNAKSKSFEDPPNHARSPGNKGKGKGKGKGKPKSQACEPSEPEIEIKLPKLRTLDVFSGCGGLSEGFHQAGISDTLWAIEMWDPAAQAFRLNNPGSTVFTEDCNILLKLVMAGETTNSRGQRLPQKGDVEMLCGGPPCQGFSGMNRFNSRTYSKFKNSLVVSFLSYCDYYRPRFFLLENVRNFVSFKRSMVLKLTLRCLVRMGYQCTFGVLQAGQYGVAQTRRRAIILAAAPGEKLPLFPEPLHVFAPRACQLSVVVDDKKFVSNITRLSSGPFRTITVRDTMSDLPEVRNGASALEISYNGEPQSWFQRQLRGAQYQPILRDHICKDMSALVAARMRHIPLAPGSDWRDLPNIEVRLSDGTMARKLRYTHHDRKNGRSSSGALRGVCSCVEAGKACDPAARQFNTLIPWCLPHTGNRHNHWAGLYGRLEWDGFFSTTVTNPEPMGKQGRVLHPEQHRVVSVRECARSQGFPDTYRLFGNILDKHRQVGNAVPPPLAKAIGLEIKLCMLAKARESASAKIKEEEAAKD
Chain of recombinant EED (O75530 76-441 limits assumed): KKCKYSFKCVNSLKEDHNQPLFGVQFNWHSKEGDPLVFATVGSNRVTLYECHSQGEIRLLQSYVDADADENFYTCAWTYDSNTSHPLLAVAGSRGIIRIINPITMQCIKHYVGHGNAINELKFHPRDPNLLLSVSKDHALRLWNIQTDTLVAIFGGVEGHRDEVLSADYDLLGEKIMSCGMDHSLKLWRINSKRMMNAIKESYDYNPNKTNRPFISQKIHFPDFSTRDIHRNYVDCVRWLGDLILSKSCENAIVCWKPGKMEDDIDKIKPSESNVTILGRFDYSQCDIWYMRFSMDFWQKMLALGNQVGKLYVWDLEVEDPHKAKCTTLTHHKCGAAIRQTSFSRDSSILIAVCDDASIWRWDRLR
T3 sequence (O75530 whole entry, the tested form may be a part): as the sequence (O75530 whole entry) above

With `COc1cccc(CC2CC3Cc4c(cccc4OC)CC3N(C)C2)c1` (stereo not drawn) [EED210], the “enthalpy change (ITC)” value in experiment [1] was -20.14 ± 5.29 kcal/mol. Also, the “entropy change (ITC)” value in experiment [1] was -46.5 cal/mol/deg. Moreover, the “stoichiometry of binding N (ITC)” value in experiment [1] amounted to 0.78. Also, the IC50 in experiment [2], in experiment [3], in experiment [4] and in experiment [5] was greater than 100 µM in each case.

`COc1cc(-c2cc3n(c(=N)c2C#N)CCc2cc4c(cc2-3)OCO4)ccc1OC(C)C` [EED396]: the IC50 in experiment [6] was 87 µM; in experiment [2], greater than 100 µM; in experiment [3] it was greater than 100 µM; in experiment [4], greater than 100 µM; in experiment [5], greater than 100 µM.

Turning to `Cc1cc(C)n(-c2cc(N3CCc4ccccc4C3)ccc2[N+](=O)[O-])n1` [EED666], the IC50 in experiment [6] is 99 µM; in experiment [2], greater than 100 µM; in experiment [3], greater than 100 µM; in experiment [4], greater than 100 µM; in experiment [5], greater than 100 µM.

As to `N#Cc1c2c(c3nncn3c1NCc1ccco1)CN(Cc1ccccc1)CC2` [EED162], the IC50 in experiment [6] was 2.2 µM; in experiment [2] it was greater than 100 µM; in experiment [7] it was 0.32 µM; in experiment [3], greater than 100 µM; in experiment [4] it was greater than 100 µM; in experiment [5], greater than 100 µM.

Consider `COc1ccccc1CN1CC(c2cn(C)c3ccccc23)C(N(C)C)C1` (stereo not drawn) [EED709], for which the IC50 in experiment [2], in experiment [3], in experiment [4] and in experiment [5] was greater than 100 µM in each case.
